Experimental findings from article PMC10803289, “Transport and inhibition mechanism of the human SGLT2–MAP17 glucose transporter” (Nature Structural & Molecular Biology, 2023) are described below.

Several values for one entry are separate records, joined by “and”; a condition that tells them apart may be missing. Equal entries are not always repeated. Where two headings read alike, the source gives them in different places.

For assay [1], the target named is T1, hSGLT2 S74A (Homo sapiens, UniProt P31639, S74A).
T1 construct: expressed in transfected cells; host or cells: Expi293 cells, crude membrane fraction
T1 sequence (P31639 whole entry S74A, one chain of several): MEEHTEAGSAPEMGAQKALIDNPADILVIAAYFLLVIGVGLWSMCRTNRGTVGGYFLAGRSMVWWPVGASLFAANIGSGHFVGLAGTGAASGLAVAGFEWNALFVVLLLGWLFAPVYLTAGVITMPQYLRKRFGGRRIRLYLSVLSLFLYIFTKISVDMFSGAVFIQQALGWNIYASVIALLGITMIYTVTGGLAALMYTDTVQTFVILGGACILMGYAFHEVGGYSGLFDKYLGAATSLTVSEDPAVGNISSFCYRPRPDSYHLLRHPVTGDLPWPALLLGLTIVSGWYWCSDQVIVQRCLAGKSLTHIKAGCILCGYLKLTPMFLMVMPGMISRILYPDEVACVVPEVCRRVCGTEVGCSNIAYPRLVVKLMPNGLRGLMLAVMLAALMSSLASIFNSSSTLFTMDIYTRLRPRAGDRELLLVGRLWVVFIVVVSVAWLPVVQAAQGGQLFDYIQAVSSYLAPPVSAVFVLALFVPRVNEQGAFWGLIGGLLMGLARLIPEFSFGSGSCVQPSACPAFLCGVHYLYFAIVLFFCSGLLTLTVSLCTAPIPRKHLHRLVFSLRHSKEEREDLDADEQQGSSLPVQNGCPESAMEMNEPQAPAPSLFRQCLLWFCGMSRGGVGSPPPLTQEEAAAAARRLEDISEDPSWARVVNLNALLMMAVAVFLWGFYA
It is filed as binding. As to conditions: S74A. The source says:
(§1) hSGLT2 complementary DNA and human MAP17 cDNA were synthesized and codon-optimized for expression in human cell lines. Both cDNAs were cloned into the pcDNA3.4 vector. The hSGLT2 sequence was fused with an N-terminal signal sequence from human trypsinogen 1, a His10 tag, and sfGFP, followed by a human rhinovirus 3C protease (HRV3C protease) recognition site. Point mutations were introduced into this construct using site-directed mutagenesis. These plasmids were utilized for all experimental procedures conducted in this study.
To examine the inhibition of binding to the crude membrane, mammalian Expi293 cells were co-transfected with the hMAP17 and hSGLT2 plasmids, as described. The cells were collected and disrupted by sonication in a hypotonic buffer (50 mM HEPES–NaOH (pH 7.5), 10 mM KCl and protease inhibitor cocktail) or Na^+-free hypotonic buffer (50 mM Tris–HCl (pH 7.5), 10 mM KCl and protease inhibitor cocktail). The cell debris were removed by centrifugation (2,000g, 5 min, 4 °C). The membrane fraction was collected by ultracentrifugation (112,000g, 30 min, 4 °C) and stored at −80 °C before use. […] The extract solution from the filter plate was diluted with water containing candesartan as an internal standard, and the SGLT2 inhibitor concentration was quantified via LC–MS/MS.
Nonspecific binding was measured using the crude membrane of nontransfected Expi293 cells. Specific binding was calculated by subtracting nonspecific binding from the binding of hSGLT2-expressing cells. Specific binding was normalized to hSGLT2 protein expression levels, measured via FSEC. The equilibrium dissociation constant (Kd) and maximum number of binding sites (Bmax) were calculated via nonlinear regression in GraphPad Prism 8.4.3. […]
The concentrations of the extract solution from the filter plate and of the cell lysate were quantified using a tandem mass spectrometry QTRAP6500 System (SCIEX) coupled with an ACQUITY UPLC system (Waters) using the internal standard method. […]

Assay [2] addresses T1, hSGLT2 S74A. It is filed as cell-based.
A further assay addresses T2, hSGLT2 F98A (Homo sapiens, UniProt P31639, F98A).
T2 sequence (P31639 1-672 F98A): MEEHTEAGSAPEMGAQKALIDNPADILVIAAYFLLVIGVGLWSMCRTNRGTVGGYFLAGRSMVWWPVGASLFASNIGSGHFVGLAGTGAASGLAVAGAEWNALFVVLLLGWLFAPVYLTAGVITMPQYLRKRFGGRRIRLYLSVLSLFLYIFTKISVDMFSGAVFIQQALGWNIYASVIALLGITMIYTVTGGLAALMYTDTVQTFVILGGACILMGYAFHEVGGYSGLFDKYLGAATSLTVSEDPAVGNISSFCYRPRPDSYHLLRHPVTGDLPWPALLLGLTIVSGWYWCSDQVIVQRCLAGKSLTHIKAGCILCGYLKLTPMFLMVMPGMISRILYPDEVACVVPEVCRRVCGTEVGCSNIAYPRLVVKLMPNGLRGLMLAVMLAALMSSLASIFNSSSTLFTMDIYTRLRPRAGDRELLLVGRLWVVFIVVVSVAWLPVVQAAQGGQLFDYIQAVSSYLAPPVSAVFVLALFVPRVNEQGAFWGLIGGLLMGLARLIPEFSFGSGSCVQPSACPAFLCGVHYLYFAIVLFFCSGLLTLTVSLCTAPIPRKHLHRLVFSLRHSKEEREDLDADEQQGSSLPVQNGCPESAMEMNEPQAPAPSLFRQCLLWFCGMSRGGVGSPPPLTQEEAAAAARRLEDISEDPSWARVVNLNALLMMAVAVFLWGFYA
T2 sequence (Q13113 1-114 partner): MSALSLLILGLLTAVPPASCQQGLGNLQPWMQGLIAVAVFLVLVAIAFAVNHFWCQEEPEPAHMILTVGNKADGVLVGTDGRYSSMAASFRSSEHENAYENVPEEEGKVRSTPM
As to the kind of experiment: α-MG uptake in HEK293 cells, F98A mutant. It is filed as cell-based. Also noted: expressed in transfected cells.
From the text: as §1
HEK293 cells (ECACC 85120602) were maintained in Dulbecco’s modified Eagle medium (Gibco) supplemented with 10% fetal bovine serum (Thermo Scientific), 2 mM L-glutamine, 100 U ml^−1 benzylpenicillin and 100 µg ml^−1 streptomycin at 37 °C in a humidified atmosphere (5% CO2 in air). HEK293 cells were seeded at 1.0 × 10^5 cells per well in poly-L-lysine coated 24-well plates. The cells in each well were transiently transfected with 0.25 µg hMAP17 plasmid and 0.50 µg hSGLT2 plasmid using Lipofectamine 2000 (Life Technologies) and cultured for 48 h. […] After preincubation, uptake was initiated by replacing the preincubation buffer with extracellular fluid buffer containing 500 μM α-MG in the absence or presence of inhibitors. Uptake was completed by removing the uptake buffer and washing with ice-cold buffer three times, followed by solubilization in 1 N NaOH at room temperature.
Cell lysates were deproteinized by adding acetonitrile containing candesartan as the internal standard. The α-MG concentration was quantified via liquid chromatography–tandem mass spectrometry (LC–MS/MS) using the internal standard method.
Cellular protein content was determined using a bicinchoninic acid protein assay kit (Thermo Fisher Scientific). The uptake of α-MG was expressed as the ratio of concentration in the cells (in pmol per mg protein) to concentration in the medium (in pmol μl^−1); this is known as the cell-to-medium ratio (in μl per mg protein).
In the inhibition study, the cell-to-medium ratio of cells transfected with the empty vector was used as the background. The specific α-MG uptake was calculated by subtracting this background from the total cell-to-medium ratio and normalized to the uptake achieved without the inhibitor. IC50 was calculated via nonlinear regression using GraphPad Prism 8.4.3.
The concentrations of the extract solution from the filter plate and of the cell lysate were quantified using a tandem mass spectrometry QTRAP6500 System (SCIEX) coupled with an ACQUITY UPLC system (Waters) using the internal standard method. Mobile phases A and B used 10 mM of ammonium bicarbonate and acetonitrile, respectively.

`O=C(CCc1ccc(O)cc1)c1c(O)cc(O)cc1O[C@@H]1O[C@H](CO)[C@@H](O)[C@H](O)[C@H]1O` [Phlorizin]: the Bmax1 at hSGLT2 S74A [1] (phlorizin, mean ± SEM n=3) worked out at 1.16 ± 0.07 pmol/mg-protein. Moreover, the “α-MG uptake (% of control)” value at hSGLT2 S74A [2] (Phlorizin 0.3 nM) was 98.3 % of control and 109.0 % of control and 132.4 % of control; at hSGLT2 S74A [2] (Phlorizin 1 nM), 94.4 % of control and 116.6 % of control and 114.8 % of control; on hSGLT2 S74A [2] (Phlorizin 3 nM), 99.5 % of control and 109.8 % of control; at hSGLT2 S74A [2] (Phlorizin 10 nM) it was 92.0 % of control and 68.8 % of control; at hSGLT2 S74A [2] (Phlorizin 30 nM) it was 76.5 % of control and 90.7 % of control; on hSGLT2 S74A [2] (Phlorizin 100 nM) it was 51.6 % of control and 68.4 % of control. For the same compound, the “α-MG uptake (% of control)” value was 32.7 % of control and 25.1 % of control at hSGLT2 S74A [2] (Phlorizin 300 nM); 115.8 % of control and 94.2 % of control and 155.8 % of control on hSGLT2 F98A (Phlorizin 0.3 nM); 76.0 % of control and 88.8 % of control and 126.1 % of control on hSGLT2 F98A (Phlorizin 3 nM); 79.6 % of control and 104.3 % of control and 76.0 % of control on hSGLT2 F98A (Phlorizin 10 nM); 103.1 % of control and 103.4 % of control and 128.4 % of control at hSGLT2 F98A (Phlorizin 30 nM); 135.2 % of control and 89.8 % of control and 99.6 % of control on hSGLT2 F98A (Phlorizin 100 nM). The “α-MG uptake (% of control)” value on hSGLT2 F98A (Phlorizin 300 nM) is 69.6 % of control and 82.5 % of control. In addition, the remaining activity at 0.3 µM at hSGLT2 F98A (HEK293, Phlorizin 300 nM, read-out: α-MG uptake (% of control)) was 80.5%.
Take `CO[C@H]1O[C@H](CO)[C@@H](O)[C@H](O)[C@H]1O` [α-MG, α-methyl-D-glucopyranoside]: the α-MG uptake on hSGLT2 S74A [2] (Fig. 3h) was 27.75 μL/mg-protein and 30.77 μL/mg-protein and 34.71 μL/mg-protein; on hSGLT2 F98A (Fig. 3h), 55.68 μL/mg-protein and 75.98 μL/mg-protein and 85.61 μL/mg-protein.
In the case of `Cc1ccc([C@@H]2O[C@H](CO)[C@@H](O)[C@H](O)[C@H]2O)cc1Cc1ccc(-c2ccc(F)cc2)s1` [Canagliflozin], the “Canagliflozin binding (% of WT)” value on hSGLT2 S74A [1] (30 nM canagliflozin, replicates) is 75.2559 % of WT and 78.5839 % of WT and 93.2268 % of WT.
